Measured values: ChEMBL document CHEMBL1152143, “Potent benzimidazolone-based CGRP receptor antagonists” (Bioorg Med Chem Lett, 2008)

Assays:
Settings in all cases: Macaca mulatta
Rhesus monkey [1] = assay: Inhibition of CGRP-induced vasodilation in rhesus monkey
Rhesus monkey [2] = assay: Inhibition of CGRP-induced vasodilation in rhesus monkey at plasma concentration of 10 uM; assay type: functional
Rhesus monkey [3] = assay: Inhibition of CGRP-induced vasodilation in rhesus monkey at plasma concentration of 2 uM; assay type: functional

EC50 (Rhesus monkey [1]) | Structure (SMILES) | inhibition at 10 µM (Rhesus monkey [2]) | inhibition at 2 µM (Rhesus monkey [3])
10 µM | Cc1cc(C)c2c(c1)n(CC(=O)Nc1ccc3c(c1)C[C@]1(C3)C(=O)NC(=O)N1C)c(=O)n2C | 50% | 
0.3 µM | Cc1cc(C)c2c(c1)n(CC(=O)Nc1ccc3c(c1)C[C@]1(C3)C(=O)NC(=O)N1C)c(=O)n2CC(=O)N(C)C |  | 100%
